Data from ChEMBL document CHEMBL1201861, “Genomics of Drug Sensitity in Cancer screening data, Wellcome Trust Sanger Institute”.

Legend:
Assay in all cases: cells
COLO-800 = type: functional, cell-based, Homo sapiens; conditions: Homo sapiens, COLO-800;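 further: growth inhibition of COLO-800 cells, read out with a cell viability assay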
Description: SANGER: Inhibition of human COLO-800 cell growth in a cell viability assay.

COLO-824 = type: functional, cell-based, Homo sapiens; conditions: Homo sapiens, COLO-824
Description: SANGER: Inhibition of human COLO-824 cell growth in a cell viability assay.

CTB-1 = type: functional, cell-based, Homo sapiens; conditions: Homo sapiens, CTB-1
Description: SANGER: Inhibition of human CTB-1 cell growth in a cell viability assay.

CW-2 = type: functional, cell-based, Homo sapiens; conditions: Homo sapiens, CW-2;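 further: growth inhibition of CW-2 cells, read out by a cell viability assay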
Description: SANGER: Inhibition of human CW-2 cell growth in a cell viability assay.

DB = type: functional, cell-based, Homo sapiens; conditions: Homo sapiens, DB
Description: SANGER: Inhibition of human DB cell growth in a cell viability assay.

DMS-114 = type: functional, cell-based, Homo sapiens; conditions: Homo sapiens, DMS-114
DOHH-2 = type: functional, cell-based, Homo sapiens; conditions: Homo sapiens, DOHH-2;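 further: growth inhibition of human DOHH-2 cells, read out with a cell viability assay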
Description: SANGER: Inhibition of human DOHH-2 cell growth in a cell viability assay.

EM-2 = type: functional, cell-based, Homo sapiens; conditions: Homo sapiens, EM-2;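 further: growth inhibition of EM-2 cells, read out with a cell viability assay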
Description: SANGER: Inhibition of human EM-2 cell growth in a cell viability assay.

ES7 = type: functional, cell-based, Homo sapiens; conditions: Homo sapiens, ES7;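 further: growth inhibition of cultured human ES7 cells, read out as cell viability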
Description: SANGER: Inhibition of human ES7 cell growth in a cell viability assay.

EW-1 = type: functional, cell-based, Homo sapiens; conditions: Homo sapiens, EW-1;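 further: growth inhibition of the human EW-1 cell line, read out by a cell viability assay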
Description: SANGER: Inhibition of human EW-1 cell growth in a cell viability assay.

GI-1 = type: functional, cell-based, Homo sapiens; conditions: Homo sapiens, GI-1;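 further: growth inhibition of human GI-1 cells, measured with a cell viability readout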
Description: SANGER: Inhibition of human GI-1 cell growth in a cell viability assay.

GOTO = type: functional, cell-based, Homo sapiens; conditions: Homo sapiens, GOTO;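 further: growth inhibition of GOTO cells, read out by a cell viability assay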
Description: SANGER: Inhibition of human GOTO cell growth in a cell viability assay.

GR-ST = type: functional, cell-based, Homo sapiens; conditions: Homo sapiens, GR-ST
Description: SANGER: Inhibition of human GR-ST cell growth in a cell viability assay.

HT = type: functional, cell-based, Homo sapiens; conditions: Homo sapiens, HT
Description: SANGER: Inhibition of human HT cell growth in a cell viability assay.

IST-MES1 = type: functional, cell-based, Homo sapiens; conditions: Homo sapiens, IST-MES1;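 further: growth inhibition of IST-MES1 cells, measured with a cell viability assay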
Description: SANGER: Inhibition of human IST-MES1 cell growth in a cell viability assay.

K5 = type: functional, cell-based, Homo sapiens; conditions: Homo sapiens, K5
Description: SANGER: Inhibition of human K5 cell growth in a cell viability assay.

KINGS-1 = type: functional, cell-based, Homo sapiens; conditions: Homo sapiens, KINGS-1;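 further: cell viability assay measuring suppression of KINGS-1 cell growth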
Description: SANGER: Inhibition of human KINGS-1 cell growth in a cell viability assay.

KNS-81-FD = type: functional, cell-based, Homo sapiens; conditions: Homo sapiens, KNS-81-FD;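 further: growth inhibition of KNS-81-FD cells, read out with a cell viability assay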
Description: SANGER: Inhibition of human KNS-81-FD cell growth in a cell viability assay.

LB2518-MEL = type: functional, cell-based; conditions: Homo sapiens;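 further: growth inhibition of human LB2518-MEL cells, measured with a cell viability assay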
Description: SANGER: Inhibition of human LB2518-MEL cell growth in a cell viability assay.

ML-2 = type: functional, cell-based, Homo sapiens; conditions: Homo sapiens, ML-2;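 further: growth inhibition of ML-2 cells, measured with a cell viability readout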
Description: SANGER: Inhibition of human ML-2 cell growth in a cell viability assay.

MOLT-16 = type: functional, cell-based, Homo sapiens; conditions: Homo sapiens, MOLT-16;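 further: growth inhibition of human MOLT-16 cells, read out with a cell viability assay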
Description: SANGER: Inhibition of human MOLT-16 cell growth in a cell viability assay.

MSTO-211H = type: functional, cell-based, Homo sapiens; conditions: Homo sapiens, MSTO-211H
Description: SANGER: Inhibition of human MSTO-211H cell growth in a cell viability assay.

MZ1-PC = type: functional, cell-based, Homo sapiens; conditions: Homo sapiens, MZ1-PC;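 further: cell viability assay measuring growth inhibition of human MZ1-PC cells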
Description: SANGER: Inhibition of human MZ1-PC cell growth in a cell viability assay.

MZ2-MEL = type: functional, cell-based, Homo sapiens; conditions: Homo sapiens, MZ2-MEL;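 further: growth inhibition of MZ2-MEL cells read out with a cell viability assay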
Description: SANGER: Inhibition of human MZ2-MEL cell growth in a cell viability assay.

NB6 = type: functional, cell-based, Homo sapiens; conditions: Homo sapiens, NB6
Description: SANGER: Inhibition of human NB6 cell growth in a cell viability assay.

NB69 = type: functional, cell-based, Homo sapiens; conditions: Homo sapiens, NB69;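 further: growth inhibition of NB69 cells, determined by a cell viability assay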
Description: SANGER: Inhibition of human NB69 cell growth in a cell viability assay.

NCI-H1155 = type: functional, cell-based, Homo sapiens; conditions: Homo sapiens, NCI-H1155;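 further: cell growth inhibition measured by a viability assay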
Description: SANGER: Inhibition of human NCI-H1155 cell growth in a cell viability assay.

NCI-H1299 = type: functional, cell-based; conditions: Homo sapiens;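 further: growth inhibition of human NCI-H1299 cells, read out by a cell viability assay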
Description: SANGER: Inhibition of human NCI-H1299 cell growth in a cell viability assay.

NCI-H1581 = type: functional, cell-based, Homo sapiens; conditions: Homo sapiens, NCI-H1581;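 further: cell growth inhibition read out by a viability assay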
Description: SANGER: Inhibition of human NCI-H1581 cell growth in a cell viability assay.

NCI-H1838 = type: functional, cell-based, Homo sapiens; conditions: Homo sapiens, NCI-H1838;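 further: growth inhibition of NCI-H1838 cells, determined with a cell viability readout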
Description: SANGER: Inhibition of human NCI-H1838 cell growth in a cell viability assay.

NH-12 = type: functional, cell-based, Homo sapiens; conditions: Homo sapiens, NH-12;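 further: growth inhibition of NH-12 cells, read out with a cell viability assay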
Description: SANGER: Inhibition of human NH-12 cell growth in a cell viability assay.

NMC-G1 = type: functional, cell-based, Homo sapiens; conditions: Homo sapiens, NMC-G1;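 further: growth inhibition of the NMC-G1 cell line, measured with a cell viability read-out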
Description: SANGER: Inhibition of human NMC-G1 cell growth in a cell viability assay.

NOS-1 = type: functional, cell-based, Homo sapiens; conditions: Homo sapiens, NOS-1;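 further: growth inhibition of the human NOS-1 cell line, read out with a cell viability assay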
Description: SANGER: Inhibition of human NOS-1 cell growth in a cell viability assay.

NTERA-2-cl-D1 = type: functional, cell-based, Homo sapiens; conditions: Homo sapiens, NTERA-2-cl-D1;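 further: inhibition of cell growth, measured with a cell viability assay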
Description: SANGER: Inhibition of human NTERA-S-cl-D1 cell growth in a cell viability assay.

OCI-AML2 = type: functional, cell-based, Homo sapiens; conditions: Homo sapiens, OCI-AML2;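 further: growth inhibition of OCI-AML2 cells, read out with a cell viability assay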
Description: SANGER: Inhibition of human OCI-AML2 cell growth in a cell viability assay.

ONS-76 = type: functional, cell-based, Homo sapiens; conditions: Homo sapiens, ONS-76;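 further: growth inhibition of human ONS-76 cells, read out with a cell viability assay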
Description: SANGER: Inhibition of human ONS-76 cell growth in a cell viability assay.

RH-1 = type: functional, cell-based, Homo sapiens; conditions: Homo sapiens, RH-1;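 further: growth inhibition of human RH-1 cells, read out with a cell viability assay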
Description: SANGER: Inhibition of human RH-1 cell growth in a cell viability assay.

Ramos-2G6-4C10 = type: functional, cell-based, Homo sapiens; conditions: Homo sapiens, Ramos-2G6-4C10;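 further: growth inhibition of the cell line, measured by a cell viability read-out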
Description: SANGER: Inhibition of human Ramos-2G6-4C10 cell growth in a cell viability assay.

SBC-1 = type: functional, cell-based, Homo sapiens; conditions: Homo sapiens, SBC-1;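 further: cell viability assay measuring growth inhibition of the SBC-1 cell line, IC50 being the concentration that halves growth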
Description: SANGER: Inhibition of human SBC-1 cell growth in a cell viability assay.

SF-268 = type: functional, cell-based, Homo sapiens; conditions: Homo sapiens, SF-268;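 further: growth inhibition of SF-268 cells determined with a cell viability assay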
Description: SANGER: Inhibition of human SF268 cell growth in a cell viability assay.

SK-NEP-1 = type: functional, cell-based, Homo sapiens; conditions: Homo sapiens, SK-NEP-1;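 further: growth inhibition of human SK-NEP-1 cells, read out by a cell viability assay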
Description: SANGER: Inhibition of human SK-NEP-1 cell growth in a cell viability assay.

A101D = type: functional, cell-based, Homo sapiens; conditions: Homo sapiens, A101D;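 further: growth inhibition of the cell line, measured with a viability assay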
Description: SANGER: Inhibition of human A101D cell growth in a cell viability assay.

BV-173 = type: functional, cell-based, Homo sapiens; conditions: Homo sapiens, BV-173
Description: SANGER: Inhibition of human BV-173 cell growth in a cell viability assay.

TE-10 = type: functional, cell-based, Homo sapiens; conditions: Homo sapiens, TE-10;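 further: growth inhibition of TE-10 cells, measured by a cell viability assay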
Description: SANGER: Inhibition of human TE-10 cell growth in a cell viability assay.

TE-6 = type: functional, cell-based, Homo sapiens; conditions: Homo sapiens, TE-6;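 further: growth inhibition of TE-6 cells, read out with a cell viability assay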
Description: SANGER: Inhibition of human TE-6 cell growth in a cell viability assay.

TE-9 = type: functional, cell-based, Homo sapiens; conditions: Homo sapiens, TE-9;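 further: cell growth inhibition, measured with a cell viability readout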
Description: SANGER: Inhibition of human TE-9 cell growth in a cell viability assay.

TGW = type: functional, cell-based, Homo sapiens; conditions: Homo sapiens, TGW;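 further: growth inhibition of human TGW cells, read out with a cell viability assay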
Description: SANGER: Inhibition of human TGW cell growth in a cell viability assay.

UACC-257 = type: functional, cell-based, Homo sapiens; conditions: Homo sapiens, UACC-257
Description: SANGER: Inhibition of human UACC-257 cell growth in a cell viability assay.

no-11 = type: functional, cell-based, Homo sapiens; conditions: Homo sapiens;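 further: growth inhibition of human NO-11 cells, read out with a cell viability assay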
Description: SANGER: Inhibition of human no-11 cell growth in a cell viability assay.

COLO-668 = type: functional, cell-based, Homo sapiens; conditions: Homo sapiens, COLO-668
Description: SANGER: Inhibition of human COLO-668 cell growth in a cell viability assay.

Q: How did the IC50 (COLO-800) turn out when OC[C@H](Cc1ccccc1)Nc1nc(Oc2ccc3c(c2)CCC3)nc2c1ncn2Cc1ccc(-c2ccccc2)cc1 was run?
A: Its IC50 is over 10.2 µM.

Q: And the IC50 (COLO-824)?
A: Its IC50 is over 10.2 µM.

Q: What about the IC50 (CTB-1) of the same molecule?
A: The IC50 was over 10.2 µM.

Q: And the IC50 (CW-2)?
A: Its IC50 is over 10.2 µM.

Q: And the IC50 (DB)?
A: The IC50 was 6.68 µM.

Q: What about the IC50 (DMS-114) of the same molecule?
A: Its IC50 is over 10.2 µM.

Q: What about the IC50 (DOHH-2) of the same molecule?
A: Its IC50 is over 10.2 µM.

Q: What about the IC50 (EM-2) of the same molecule?
A: The IC50 was over 10.2 µM.

Q: And the IC50 (ES7)?
A: The IC50 was over 10.2 µM.

Q: And the IC50 (EW-1)?
A: Its IC50 is over 10.2 µM.

Q: And the IC50 (GI-1)?
A: Its IC50 is 7.9 µM.

Q: What about the IC50 (GOTO) of the same molecule?
A: Its IC50 is 5.86 µM.

Q: And the IC50 (GR-ST)?
A: Its IC50 is 5.51 µM.

Q: What about the IC50 (HT) of the same molecule?
A: The IC50 was over 10.2 µM.

Q: And the IC50 (IST-MES1)?
A: Its IC50 is over 10.2 µM.

Q: And the IC50 (K5)?
A: Its IC50 is over 10.2 µM.

Q: And the IC50 (KINGS-1)?
A: Its IC50 is over 10.2 µM.

Q: What about the IC50 (KNS-81-FD) of the same molecule?
A: The IC50 was over 10.2 µM.

Q: And the IC50 (LB2518-MEL)?
A: Its IC50 is over 10.2 µM.

Q: And the IC50 (ML-2)?
A: The IC50 was over 10.2 µM.

Q: What about the IC50 (MOLT-16) of the same molecule?
A: Its IC50 is over 10.2 µM.

Q: And the IC50 (MSTO-211H)?
A: Its IC50 is over 10.2 µM.

Q: And the IC50 (MZ1-PC)?
A: Its IC50 is 6.97 µM.

Q: What about the IC50 (MZ2-MEL) of the same molecule?
A: The IC50 was 4.42 µM.

Q: And the IC50 (NB6)?
A: The IC50 was over 10.2 µM.

Q: What about the IC50 (NB69) of the same molecule?
A: The IC50 was over 10.2 µM.

Q: And the IC50 (NCI-H1155)?
A: Its IC50 is over 10.2 µM.

Q: And the IC50 (NCI-H1299)?
A: Its IC50 is over 10.2 µM.

Q: What about the IC50 (NCI-H1581) of the same molecule?
A: Its IC50 is over 10.2 µM.

Q: And the IC50 (NCI-H1838)?
A: Its IC50 is over 10.2 µM.

Q: And the IC50 (NH-12)?
A: The IC50 was over 10.2 µM.

Q: What about the IC50 (NMC-G1) of the same molecule?
A: Its IC50 is over 10.2 µM.

Q: What about the IC50 (NOS-1) of the same molecule?
A: Its IC50 is over 10.2 µM.

Q: What about the IC50 (NTERA-2-cl-D1) of the same molecule?
A: The IC50 was over 10.2 µM.

Q: What about the IC50 (OCI-AML2) of the same molecule?
A: The IC50 was 5.77 µM.

Q: What about the IC50 (ONS-76) of the same molecule?
A: Its IC50 is 8.58 µM.

Q: What about the IC50 (RH-1) of the same molecule?
A: The IC50 was 5.29 µM.

Q: What about the IC50 (Ramos-2G6-4C10) of the same molecule?
A: Its IC50 is 7.65 µM.

Q: And the IC50 (SBC-1)?
A: Its IC50 is over 10.2 µM.

Q: What about the IC50 (SF-268) of the same molecule?
A: Its IC50 is over 10.2 µM.

Q: What about the IC50 (SK-NEP-1) of the same molecule?
A: The IC50 was over 10.2 µM.

Q: What about the IC50 (A101D) of the same molecule?
A: The IC50 was over 10.2 µM.

Q: And the IC50 (BV-173)?
A: Its IC50 is over 10.2 µM.

Q: And the IC50 (TE-10)?
A: Its IC50 is 7.51 µM.

Q: What about the IC50 (TE-6) of the same molecule?
A: The IC50 was over 10.2 µM.

Q: And the IC50 (TE-9)?
A: Its IC50 is over 10.2 µM.

Q: And the IC50 (TGW)?
A: The IC50 was over 10.2 µM.

Q: What about the IC50 (UACC-257) of the same molecule?
A: Its IC50 is over 10.2 µM.

Q: And the IC50 (no-11)?
A: The IC50 was over 10.2 µM.

Q: What about the IC50 (COLO-668) of the same molecule?
A: The IC50 was over 10.2 µM.

Q: What does the source list for O=S(=O)(O)c1ccc2cc(/N=N/c3cc(S(=O)(=O)O)c4cccnc4c3O)ccc2c1?
A: IC50 (COLO-800): > 16 µM; IC50 (COLO-824): > 16 µM; IC50 (CTB-1): > 16 µM; IC50 (CW-2): > 16 µM; IC50 (DB): > 16 µM; IC50 (DMS-114): > 16 µM; IC50 (DOHH-2): > 16 µM; IC50 (EM-2): > 16 µM; IC50 (ES7): > 16 µM; IC50 (EW-1): > 16 µM; IC50 (GI-1): > 16 µM; IC50 (GOTO): > 16 µM; IC50 (GR-ST): > 16 µM; IC50 (HT): > 16 µM; IC50 (IST-MES1): > 16 µM; IC50 (K5): > 16 µM; IC50 (KINGS-1): > 16 µM; IC50 (KNS-81-FD): > 16 µM; IC50 (LB2518-MEL): > 16 µM; IC50 (ML-2): > 16 µM; IC50 (MOLT-16): > 16 µM; IC50 (MSTO-211H): > 16 µM; IC50 (MZ1-PC): > 16 µM; IC50 (MZ2-MEL): > 16 µM; IC50 (NB6): 13.7 µM; IC50 (NB69): > 16 µM; IC50 (NCI-H1155): > 16 µM; IC50 (NCI-H1299): > 16 µM; IC50 (NCI-H1581): > 16 µM; IC50 (NCI-H1838): > 16 µM; IC50 (NH-12): > 16 µM; IC50 (NMC-G1): > 16 µM; IC50 (NOS-1): > 16 µM; IC50 (NTERA-2-cl-D1): > 16 µM; IC50 (OCI-AML2): > 16 µM; IC50 (ONS-76): > 16 µM; IC50 (RH-1): > 16 µM; IC50 (Ramos-2G6-4C10): > 16 µM; IC50 (SBC-1): > 16 µM; IC50 (SF-268): > 16 µM; IC50 (SK-NEP-1): > 16 µM; IC50 (A101D): > 16 µM; IC50 (BV-173): > 16 µM; IC50 (TE-10): > 16 µM; IC50 (TE-6): > 16 µM; IC50 (TE-9): > 16 µM; IC50 (TGW): > 16 µM; IC50 (UACC-257): > 16 µM; IC50 (no-11): > 16 µM; IC50 (COLO-668): > 16 µM
